The values that follow come from patent US9694016B2 (Novartis AG, priority 2013, dated 2017).

b-Raf (V600E), sequence (P15056 whole entry V600E): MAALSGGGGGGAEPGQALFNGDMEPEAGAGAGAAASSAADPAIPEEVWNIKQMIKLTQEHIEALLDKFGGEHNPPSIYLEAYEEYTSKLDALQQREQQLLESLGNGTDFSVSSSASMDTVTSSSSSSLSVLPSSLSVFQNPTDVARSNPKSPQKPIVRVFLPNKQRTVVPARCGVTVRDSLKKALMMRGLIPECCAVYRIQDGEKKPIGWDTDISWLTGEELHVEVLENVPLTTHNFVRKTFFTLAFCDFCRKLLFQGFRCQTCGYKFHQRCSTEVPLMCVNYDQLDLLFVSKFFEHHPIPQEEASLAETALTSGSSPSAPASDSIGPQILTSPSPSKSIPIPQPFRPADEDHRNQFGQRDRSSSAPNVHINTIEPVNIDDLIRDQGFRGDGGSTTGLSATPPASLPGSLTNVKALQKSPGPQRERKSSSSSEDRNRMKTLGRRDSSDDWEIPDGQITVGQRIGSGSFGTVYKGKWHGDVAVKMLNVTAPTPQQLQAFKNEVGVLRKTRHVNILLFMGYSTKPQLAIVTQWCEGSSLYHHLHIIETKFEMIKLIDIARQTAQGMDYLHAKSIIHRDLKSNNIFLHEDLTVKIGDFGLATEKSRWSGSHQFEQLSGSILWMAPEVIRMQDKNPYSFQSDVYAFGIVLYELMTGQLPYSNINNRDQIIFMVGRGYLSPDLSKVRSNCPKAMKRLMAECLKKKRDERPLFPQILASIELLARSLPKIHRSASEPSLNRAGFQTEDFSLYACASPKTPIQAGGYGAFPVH

The first assay concerns the target b-Raf (V600E) (Homo sapiens (Human), UniProt P15056, V600E). The note with it: read-out: b-Raf IC-50; AlphaScreen, 60 min pre-incubation, 3 hours reaction. (In general: Alpha assays give light when donor and acceptor beads are brought close together.)
Consider `Cc1ncc(NC(=O)c2cccc(C(F)(F)F)c2)cc1-c1cc(N2CCOCC2)nc(NC(C)(C)CO)n1` [Example 752, N-(5-(2-((1-hydroxy-2-methylpropan-2-yl)amino)-6-morpholinopyrimidin-4-yl)-6-methylpyridin-3-yl)-3-(trifluoromethyl)benzamide], for which the IC50 was determined as 1.8 nM. Still for that read-out and setting: the figure for `Cc1ncc(NC(=O)c2cccc(C(F)(F)F)c2)cc1-c1cc(N2CCOCC2)nc(N2CC(O)C2)n1` [Example 768, N-(5-(2-(3-hydroxyazetidin-1-yl)-6-morpholinopyrimidin-4-yl)-6-methylpyridin-3-yl)-3-(trifluoromethyl)benzamide] is 11.1 nM; for `Cc1ccc(NC(=O)c2cnnc(C(C)(C)C#N)c2)cc1-c1cc(N2CCOCC2)c(=O)n(C)n1` [Example 646, 6-(2-cyanopropan-2-yl)-N-(4-methyl-3-(1-methyl-5-morpholino-6-oxo-1,6-dihydropyridazin-3-yl)phenyl)pyridazine-4-carboxamide] it is 8.4 nM. On the same count and under the same terms, as for `Cc1ncc(NC(=O)c2ccnc(C3(C#N)CC3)c2)cc1-c1cc(N2CCOCC2)c(=O)n(C)n1` [Example 683, 2-(1-cyanocyclopropyl)-N-(6-methyl-5-(1-methyl-5-morpholino-6-oxo-1,6-dihydropyridazin-3-yl)pyridin-3-yl)isonicotinamide], the figure is 11.2 nM. On the same count and under the same terms, as for `Cc1ccc(NC(=O)c2cccc(C(F)(F)F)c2)cc1-c1nc(N2CCOCC2)c2cccnc2n1` [Example 833, N-(4-methyl-3-(4-morpholinopyrido[2,3-d]pyrimidin-2-yl)phenyl)-3-(trifluoromethyl)benzamide], the figure is 1.7 nM. With `Cc1ncc(NC(=O)c2cccc(C(F)(F)F)c2)cc1-c1cc(N2CCOCC2)nc(OC2CNC2)n1` [Example 776, N-(5-(2-(azetidin-3-yloxy)-6-morpholinopyrimidin-4-yl)-6-methylpyridin-3-yl)-3-(trifluoromethyl)benzamide], the IC50 was determined as 25000 nM.

For `Cc1ccc(NC(=O)c2ccnc(C(C)(F)F)c2)cc1-c1cc(N2CCOCC2)nc(OC2CNC2)n1` [Example 779, N-(3-(2-(azetidin-3-yloxy)-6-morpholinopyrimidin-4-yl)-4-methylphenyl)-2-(1,1-difluoroethyl)isonicotinamide], the IC50 was 2.2 nM. Still for that read-out and setting: as for `Cc1ncc(NC(=O)c2ccnc(C(C)(C)C)c2)cc1-c1cc(N2CCOCC2)n(C)c(=O)c1` [Example 507, 2-(tert-butyl)-N-(1′,2-dimethyl-6′-morpholino-2′-oxo-1′,2′-dihydro-[3,4′-bipyridin]-5-yl)isonicotinamide], the figure is 20.6 nM; as for `Cc1ncc(NC(=O)c2cnnc(C(F)(F)F)c2)cc1-c1cc(N2CCOCC2)c(OC2CCOCC2)nn1` [Example 631, N-(6-methyl-5-(5-morpholino-6-((tetrahydro-2H-pyran-4-yl)oxy)pyridazin-3-yl)pyridin-3-yl)-6-(trifluoromethyl)pyridazine-4-carboxamide], 2.7 nM. The same measure, in the same setting: as for `Cc1ccc(NC(=O)c2ccnc(C(C)(C)C#N)c2)cc1-c1cc(N2CCOCC2(C)C)c(=O)n(C)n1` [Example 671, 2-(2-cyanopropan-2-yl)-N-(3-(5-(3,3-dimethylmorpholino)-1-methyl-6-oxo-1,6-dihydropyridazin-3-yl)-4-methylphenyl)isonicotinamide], the figure is 25.5 nM. On the same count and under the same terms, the figure for `Cc1ccc(NC(=O)c2cnnc(C(F)(F)F)c2)cc1-c1cc(N2CCOCC2)n(C)c(=O)c1` [Example 495, N-(4-methyl-3-(1-methyl-6-morpholino-2-oxo-1,2-dihydropyridin-4-yl)phenyl)-6-(trifluoromethyl)pyridazine-4-carboxamide] is 4.5 nM.

Turning to `Cc1ncc(NC(=O)c2ccnc(C(C)(F)F)c2)cc1-c1cc(N2CCOCC2)c(OC2CCOCC2)nn1` [Example 628, 2-(1,1-difluoroethyl)-N-(6-methyl-5-(5-morpholino-6-((tetrahydro-2H-pyran-4-yl)oxy)pyridazin-3-yl)pyridin-3-yl)isonicotinamide], the IC50 turned out to be 1.8 nM. As to `Cc1ncc(NC(=O)c2cccc(C(F)(F)F)c2)cc1-c1cc(N2CCOCC2)n2nccc2n1` [Example 793], the IC50 was determined as 1.3 nM. For the compound `Cc1ccc(NC(=O)c2ccnc(C(C)(F)F)c2)cc1-c1cc(N2CCOC[C@H]2C)c(=O)n(C)n1` [Example 674, (R)-2-(1,1-difluoroethyl)-N-(4-methyl-3-(1-methyl-5-(3-methylmorpholino)-6-oxo-1,6-dihydropyridazin-3-yl)phenyl)isonicotinamide], the IC50 worked out at 3.7 nM.

The same assay, now with this note: read-out: b-Raf IC-50; AlphaScreen, 60 min pre-incubation, reaction 3 hours at room temperature.
Consider `Cc1ccc(NC(=O)c2cnnc(C(F)(F)F)c2)cc1-c1cc(N2CCOCC2)nc(N2CC(C)(O)C2)c1` [Example 1073, N-(3-(2-(3-hydroxy-3-methylazetidin-1-yl)-6-morpholinopyridin-4-yl)-4-methylphenyl)-6-(trifluoromethyl)pyridazine-4-carboxamide], for which the IC50 is 2.99 nM. Still for that read-out and setting: the figure for `Cc1ncc(NC(=O)c2cc(C(C)(C)C#N)ccn2)cc1-c1cnc(OCCO)c(N2CCOCC2)c1` [Example 973, 4-(2-cyanopropan-2-yl)-N-(6′-(2-hydroxyethoxy)-2-methyl-5′-morpholino-[3,3′-bipyridin]-5-yl)picolinamide] is 15.8 nM; for `Cc1ccc(NC(=O)c2ccnc(C(C)(F)F)c2)cc1-c1cc(C2COCCO2)nc(N2CCOCC2)c1` (stereo not drawn) [Example 1145] it is 1.3 nM; for `COc1nnc(-c2cc(C(=O)Nc3ccnc(C(F)(F)F)c3)ccc2C)cc1N1CCOCC1` [Example 1018] it is 1.76 nM. On the same count and under the same terms, as for `Cc1ncc(NC(=O)c2ccnc(C(C)(F)F)c2)cc1-c1cc(N2CCOCC2)c2nccn2c1` [Example 879, 2-(1,1-difluoroethyl)-N-(6-methyl-5-(8-morpholinoimidazo[1,2-a]pyridin-6-yl)pyridin-3-yl)isonicotinamide], the figure is 6.1 nM; as for `Cc1ncc(NC(=O)c2ccnc(S(C)(=O)=O)c2)cc1-c1cc(N2CCOCC2)nc(N2CCOCC2)c1` [Example 1124, N-(2-methyl-2′,6′-dimorpholino-[3,4′-bipyridin]-5-yl)-2-(methylsulfonyl)isonicotinamide], 12.1 nM.

`Cc1ccc(NC(=O)c2cccc(C(C)(C)S(C)(=O)=O)c2)cc1-c1cc(N2CCOCC2)nc(N2CC(O)C2)c1` [Example 1099, N-(3-(2-(3-hydroxyazetidin-1-yl)-6-morpholinopyridin-4-yl)-4-methylphenyl)-3-(2-(methylsulfonyl)propan-2-yl)benzamide]: the IC50 was 18.8 nM. `Cc1ncc(NC(=O)c2cccc(C(F)(F)F)c2)cc1-c1cnc(OCC2COCCO2)c(N2CCOCC2)c1` (stereo not drawn) [Example 992]: the IC50 turned out to be 1.63 nM.

Still in this assay, the particulars now being: read-out: b-Raf IC-50; Table 2; AlphaScreen, 3 hours reaction.
Take `CCC(F)(F)c1cc(C(=O)Nc2ccc(C)c(-c3cc(N4CCOCC4)c(=O)n(C)c3)c2)ccn1` [Example 341, 2-(1,1-difluoropropyl)-N-(4-methyl-3-(1-methyl-5-morpholino-6-oxo-1,6-dihydropyridin-3-yl)phenyl)isonicotinamide]: the IC50 was 2 nM. Still for that read-out and setting: as for `Cc1ccc(NC(=O)c2ccnc(C(C)(C)C#N)c2)cc1-c1cc(N2CCOCC2)ncn1` [Example 2, 2-(2-cyanopropan-2-yl)-N-(4-methyl-3-(6-morpholinopyrimidin-4-yl)phenyl)isonicotinamide], the figure is 4.8 nM; as for `Cc1ncc(NC(=O)c2ccnc(C(C)(C)F)c2)cc1-c1cnc(F)c(N2CCOCC2)c1` [Example 298, N-(6′-fluoro-2-methyl-5′-morpholino-[3,3′-bipyridin]-5-yl)-2-(2-fluoropropan-2-yl)isonicotinamide], 3.9 nM; as for `Cc1ncc(NC(=O)c2cc(CN(C)C)cc(C(F)(F)F)c2)cc1-c1cnc(C#N)c(N2CCOCC2)c1` [Example 249, N-(6′-cyano-2-methyl-5′-morpholino-[3,3′-bipyridin]-5-yl)-3-((dimethylamino)methyl)-5-(trifluoromethyl)benzamide], 36.5 nM. Still for that read-out and setting: the figure for `Cc1ncc(NC(=O)c2cccc(C(C)(C)C#N)c2)cc1-c1cc(N2CCOCC2)c(=O)n(C)c1` [Example 389, 3-(2-cyanopropan-2-yl)-N-(1′,2-dimethyl-5′-morpholino-6′-oxo-1′,6′-dihydro-[3,3′-bipyridin]-5-yl)benzamide] is 64.2 nM. Consider `Cc1ccc(NC(=O)c2ccnc(C3COC3)c2)cc1-c1cc(N2CCOCC2)c(=O)n(C)c1` [Example 356, N-(4-methyl-3-(1-methyl-5-morpholino-6-oxo-1,6-dihydropyridin-3-yl)phenyl)-2-(oxetan-3-yl)isonicotinamide], for which the IC50 was found to be 3.9 nM. On the same count and under the same terms, the figure for `Cc1ncc(NC(=O)c2ccnc(C(C)C)c2)cc1-c1cnc(N(C)C)c(N2CCOCC2)c1` [Example 308, N-(6′-(dimethylamino)-2-methyl-5′-morpholino-[3,3′-bipyridin]-5-yl)-2-isopropylisonicotinamide] is 0.8 nM; for `Cc1ncc(NC(=O)c2ccc(F)c(OC(C)C)c2)cc1-c1cc(N2CCOCC2)c(=O)n(C)c1` [Example 396, N-(1′,2-dimethyl-5′-morpholino-6′-oxo-1′,6′-dihydro-[3,3′-bipyridin]-5-yl)-4-fluoro-3-isopropoxybenzamide] it is 10.8 nM; for `COc1ncc(-c2cc(NC(=O)c3ccnc(C(C)C)c3)cnc2C)cc1N1CCOCC1` [Example 323, 2-isopropyl-N-(6′-methoxy-2-methyl-5′-morpholino-[3,3′-bipyridin]-5-yl)isonicotinamide] it is 12.9 nM. Same read-out and setting: as for `CCOc1ncc(-c2cc(NC(=O)c3cccc(S(C)(=O)=O)c3)ccc2C)cc1N1CCOCC1` [Example 229, N-(3-(6-ethoxy-5-morpholinopyridin-3-yl)-4-methylphenyl)-3-(methylsulfonyl)benzamide], the figure is 0.7 nM. Still for that read-out and setting: as for `CCOc1ncc(-c2cc(NC(=O)c3ccnc(C4COC4)c3)cnc2C)cc1N1CCOCC1` [Example 255, N-(6′-ethoxy-2-methyl-5′-morpholino-[3,3′-bipyridin]-5-yl)-2-(oxetan-3-yl)isonicotinamide], the figure is 5.6 nM.
